Like-named read-outs stand apart in the source and are kept apart here.
Tests used:
P388/0 tumor cells = experiment: Lymphocytic Leukemia P388/0 Test; type: in vivo, CD2-F1 mice; settings: for Optimal Dose: intraperitoneally on days 1, 5, and 9 relative to tumor implant; for T/C x 100% (Excluding 30 Day survivors): median survival time treated/control at optimal dose, i.p. days 1, 5, and 9, criterion for activity >120%
Source text: Methods for evaluating the antitumour activity of these compounds are essentially those used in the Tumor Panel by the Developmental Therapeutics Program, Division of Cancer Treatment, National Cancer institute, A. Goldin, et al., Methods in Cancer Research, Vol. XVI, p. 165, Academic Press (1979). Some modifications, in dose level and schedule have been made to increase the testing efficiency.
(§1) CD2-F1 mice, of the same sex, weighing 20t3g are used for this test. Control and test animals are injected intraperitoneally with a suspension of -10^6 viable P388/0 tumor cells on day 0. In each test several dose levels which bracket the LD20 for the compound are evaluated; each dose level group contains 6 animals. The test compounds are prepared either in physiologic saline containing 0.05% Tween 80 or distilled water containing 5% dextrose and are administered intraperitoneally on days 1, 5, and 9 relative to tumor implant. Doses are on a mg/kg basis according to individual animals' body weights. The day of death for each animal is recorded, the median identified for each group and the ratios of median survival time for treated (T)/control (C) groups are calculated. The criterion for activity is T/C x 100 >120%.

[1] = LD20 determined in the P388/0 test; type: in vivo
Method: as §1

Saccharomyces cerevisiae = experiment: In vitro antifungal activity, minimum fungistatic concentration; type: cell-based; settings: read-out: Minimum Fungistatic Concentration
Method: The minimum fungistatic concentrations of compounds of the formula (I) against various fungi were obtained using standard techniques. The tests were carried out in either medium A or medium B (see below) and the standard used in each instance was Miconazole nitrate.

[2] = intraperitoneally on days 1, 5, and 9, tumor-bearing mice

SMILES	Optimal Dose (P388/0 tumor cells)	T/C x 100% (Excluding 30 Day survivors) (P388/0 tumor cells)	LD20 [1, 2]	LD20 ([1]; mouse, in vivo, ip)	MIC (Saccharomyces cerevisiae)	MIC (Saccharomyces cerevisiae; medium A or medium B)
CC(CO)(CO)NCc1c2ccccc2cc2c1ccc1ccccc12 [Example 1, 2-((7-Benz[a]anthracenylmethyl)amino)-2-methyl-1,3-propanediol methanesulfonate]	220 mg/kg	+270%	180 mg/kg			
CC(CO)(CO)NCc1c2ccccc2c2ccc3cccc4ccc1c2c43 [Example 2, 2-[(Benzo[a]pyren-6-ylmethyl)amino]-2-methyl-1,3-propanediol methanesulfonate]	111 mg/kg	+204%	100 mg/kg			
CC(CO)(CO)NCc1c2ccccc2cc2cc3ccccc3cc12 [Example 3C, 2-[(5-naphthacenylmethyl)amino]-2-methyl-1,3-propanediol methanesulfonate]	60 mg/kg	+195%		50 mg/kg		
CC(CO)(CO)NCc1c2c(cc3ccccc13)Cc1ccccc1-2 [Example 4B, 2-[(11H-Benzo[b]fluoren-5-ylmethyl)amino]-2-methyl-1,3-propanediol methanesulfonate]	225 mg/kg	+280%		300 mg/kg		
CC(CO)(CO)NCc1cc2ccc3ccccc3c2c2ccccc12 [Example 5B, 2[(Benzo[c]phenanthren-5-ylmethyl)amino]-2-methyl-1,3-propanediol methanesulfonate]	15 mg/kg	+140%	10 mg/kg		≤ 0.4 µg/mL	
CC(CO)(CO)NCc1c2ccccc2c(Cl)c2cc3ccccc3cc12 [Example 6B, 2-[(12-Chloro-5-naphthacenylmethyl)amino]-2-methyl-1,3-propanediol methanesulfonate]	75 mg/kg	+150%		70 mg/kg		
CC(CO)(CO)NCc1c2ccccc2c(Cl)c2cc3ccccc3cc12.Cl [Example 6C, 2-[(12-chloro-5-naphthacenylmethyl)amino]-2-methyl-1,3-propanediol hydrochloride]	40 mg/kg	+150%	70 mg/kg			
Clc1ccc(COC(Cn2ccnc2)c2ccc(Cl)cc2Cl)c(Cl)c1 (centres unmarked) [Miconazole Nitrate, Miconazole nitrate, reference compound]						≤ 0.4 µg/mL
